Measurements published in patent US11401271B2, “Fused heterocyclic compound, pyrazole-ring-containing fused heterocyclic compound, agricultural composition containing thereof, and method of using the composition” (SOUTH CHINA AGRICULTURAL UNIVERSITY, priority 2017, dated 2022).
Like-named read-outs stand apart in the source and are kept apart here.

Assays:
Assay in all cases: whole plant or invertebrate
Format in all cases: in vivo
Plutella xylostella = conditions: for Plutella xylostella Mortality (%) 500 ppm / Plutella xylostella Mortality (%): 2nd-instar larvae, leaf immersion feeding, 500 ppm; for mortality at 500 ppm: Plutella xylostella, read-out: Plutella xylostella Mortality (%) 500 ppm
Summary of the method: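 Cabbage leaf discs dipped 5 s in compound at 500 ppm (0.05% Tween-80 aqueous), air-dried, fed to about 35 2nd-instar larvae at 28° C., triplicate. Dead larvae counted after 24 h; mortality (%) corrected against Tween-80 control.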

Solenopsis invicta = conditions: water test tube poison-feeding; for Solenopsis invicta Mortality (%) 100 ppm 24 h / Solenopsis invicta Mortality (%) 100 ppm 72 h / Solenopsis invicta Mortality (%) 24 h / Solenopsis invicta Mortality (%) 72 h: 100 ppm; for mortality at 100 ppm: Solenopsis invicta
Summary of the method: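 Fire ants fed compound by water test-tube poison-feeding at 100 ppm in aqueous 0.05% Tween-80/5% honey (from 10 g/L DMSO stock), kept at 25 °C. Live and dead ants counted at 24 and 72 h; mortality (%) calculated relative to live ants in the untreated control.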

Aphis craccivora = conditions: for Aphis craccivora Mortality (%) 500 ppm / Aphis craccivora Mortality (%): wingless adults, 500 ppm; for Aphis craccivora Mortality (%) 500 ppm: impregnation method, 24 hours; for Aphis craccivora Mortality (%): immersion 5 seconds, counted after 24 hours; for mortality at 500 ppm: Aphis craccivora, 24 h, read-out: Aphis craccivora Mortality (%) 500 ppm
Summary of the method: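 Wingless adults feeding on bean sprouts were dipped with the sprouts for 5 s in 500 ppm compound in aqueous 0.05% Tween-80, air-dried, then held at 23° C. Dead aphids counted after 24 h, triplicate, with 0.05% Tween-80 as control. Mortality (%) = (control live − treated live)/control live × 100.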

Spodoptera exigua = conditions: for Spodoptera exigua Mortality (%) 500 ppm / Spodoptera exigua Mortality (%): 2nd-instar larvae, leaf immersion feeding, 500 ppm; for Spodoptera exigua Mortality (%) 500 ppm: 24 hours; for mortality at 500 ppm: Spodoptera exigua, 24 h, read-out: Spodoptera exigua Mortality (%) 500 ppm
Summary of the method: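 Cabbage leaf discs dipped 5 s in 500 ppm compound (0.05% Tween-80 aqueous), air-dried, fed to about 35 2nd-instar larvae at 28° C, three replicates. Deaths counted at 24 h; mortality corrected against Tween-80 control.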

[1] = 24 h, read-out: Solenopsis invicta Mortality (%) 100 ppm 24 h, 100 ppm, 24 h
[2] = 72 h, read-out: Solenopsis invicta Mortality (%) 100 ppm 72 h, 100 ppm, 72 h

SMILES: COC(=O)CC1(C(=O)C(F)(F)F)Nc2c([S+]([O-])C(F)(F)F)c(C#N)nn2-c2ncc(C(F)(F)F)cc21 (stereo not drawn) [a-28]
- Plutella xylostella Mortality (%) 500 ppm (Plutella xylostella): 100%
- Solenopsis invicta Mortality (%) 100 ppm 24 h (Solenopsis invicta; 24 h): 23%
- Solenopsis invicta Mortality (%) 100 ppm 72 h (Solenopsis invicta; 72 h): 99%
- Aphis craccivora Mortality (%) 500 ppm (Aphis craccivora): 100%
- Spodoptera exigua Mortality (%) 500 ppm (Spodoptera exigua): 95%

SMILES: COC(=O)CC1Nc2c([S+]([O-])C(F)(F)F)c(C(F)(F)F)nn2-c2c(Cl)cc(C(F)(F)F)cc21 (stereo not drawn) [d-98]
- Plutella xylostella Mortality (%) (Plutella xylostella): 100%
- Solenopsis invicta Mortality (%) 24 h (Solenopsis invicta; 24 h): 20%
- Solenopsis invicta Mortality (%) 72 h (Solenopsis invicta; 72 h): 99%
- Aphis craccivora Mortality (%) (Aphis craccivora): 100%
- Spodoptera exigua Mortality (%) (Spodoptera exigua): 100%

SMILES: CC(C)C1Nc2c(OC(F)(F)F)c(C#N)nn2-c2cncc(Cl)c21 (stereo not drawn) [b-131]
- Plutella xylostella Mortality (%) (Plutella xylostella): 95%
- Solenopsis invicta Mortality (%) 24 h (Solenopsis invicta; 24 h): 11%
- Solenopsis invicta Mortality (%) 72 h (Solenopsis invicta; 72 h): 100%
- Aphis craccivora Mortality (%) (Aphis craccivora): 100%
- Spodoptera exigua Mortality (%) (Spodoptera exigua): 95%

SMILES: COC(=O)C(C)C1Nc2c([S+]([O-])C(F)(F)F)c(C#N)nn2-c2cncc(Cl)c21 (stereo not drawn) [b-66]
- Plutella xylostella Mortality (%) (Plutella xylostella): 96%
- Solenopsis invicta Mortality (%) 24 h (Solenopsis invicta; 24 h): 28%
- Solenopsis invicta Mortality (%) 72 h (Solenopsis invicta; 72 h): 97%
- Aphis craccivora Mortality (%) (Aphis craccivora): 100%
- Spodoptera exigua Mortality (%) (Spodoptera exigua): 91%

SMILES: N#Cc1nn2c(c1[S+]([O-])C(F)(F)F)NC(Cc1ccccc1)(C(=O)C(F)(F)F)c1cc(C(F)(F)F)cnc1-2 (stereo not drawn) [a-27]
- Plutella xylostella Mortality (%) 500 ppm (Plutella xylostella): 100%
- Solenopsis invicta Mortality (%) 100 ppm 24 h (Solenopsis invicta; 24 h): 25%
- Solenopsis invicta Mortality (%) 100 ppm 72 h (Solenopsis invicta; 72 h): 100%
- Aphis craccivora Mortality (%) 500 ppm (Aphis craccivora): 100%
- Spodoptera exigua Mortality (%) 500 ppm (Spodoptera exigua): 100%

SMILES: N#Cc1nn2c(c1[S+]([O-])C(F)(F)F)NC(Br)(CC(=O)C(F)(F)F)c1cc(C(F)(F)F)cc(Cl)c1-2 (stereo not drawn) [d-63]
- Plutella xylostella Mortality (%) (Plutella xylostella): 100%
- Solenopsis invicta Mortality (%) 24 h (Solenopsis invicta; 24 h): 20%
- Solenopsis invicta Mortality (%) 72 h (Solenopsis invicta; 72 h): 90%
- Aphis craccivora Mortality (%) (Aphis craccivora): 100%
- Spodoptera exigua Mortality (%) (Spodoptera exigua): 95%

SMILES: N#Cc1nn2c(c1[S+]([O-])C(F)(F)F)NC(Cl)c1c(Cl)cncc1-2 (stereo not drawn) [b-80]
- Plutella xylostella Mortality (%) (Plutella xylostella): 95%
- Solenopsis invicta Mortality (%) 24 h (Solenopsis invicta; 24 h): 14%
- Solenopsis invicta Mortality (%) 72 h (Solenopsis invicta; 72 h): 90%
- Aphis craccivora Mortality (%) (Aphis craccivora): 100%
- Spodoptera exigua Mortality (%) (Spodoptera exigua): 90%

SMILES: CC1(C)Nc2c([S+]([O-])C(F)(F)F)c(C#N)nn2-c2ncc(C(F)(F)F)cc21 (stereo not drawn) [a-51]
- Plutella xylostella Mortality (%) 500 ppm (Plutella xylostella): 91%
- Solenopsis invicta Mortality (%) 100 ppm 24 h (Solenopsis invicta; 24 h): 16%
- Solenopsis invicta Mortality (%) 100 ppm 72 h (Solenopsis invicta; 72 h): 95%
- Aphis craccivora Mortality (%) 500 ppm (Aphis craccivora): 100%
- Spodoptera exigua Mortality (%) 500 ppm (Spodoptera exigua): 89%

SMILES: N#CCC1(CBr)Nc2c([S+]([O-])C(F)(F)F)c(C#N)nn2-c2c(Cl)cc(C(F)(F)F)cc21 (stereo not drawn) [Compound C28]
- mortality at 500 ppm (Plutella xylostella): 100%
- mortality at 100 ppm (Solenopsis invicta; [1]): 30%
- mortality at 100 ppm (Solenopsis invicta; [2]): 98%
- mortality at 500 ppm (Aphis craccivora): 100%
- mortality at 500 ppm (Spodoptera exigua): 100%

SMILES: N#CCC1(Cl)Nc2c([S+]([O-])C(F)(F)F)c(C#N)nn2-c2c(Cl)cc(C(F)(F)F)cc21 (stereo not drawn) [d-60]
- Plutella xylostella Mortality (%) (Plutella xylostella): 96%
- Solenopsis invicta Mortality (%) 24 h (Solenopsis invicta; 24 h): 24%
- Solenopsis invicta Mortality (%) 72 h (Solenopsis invicta; 72 h): 90%
- Aphis craccivora Mortality (%) (Aphis craccivora): 90%
- Spodoptera exigua Mortality (%) (Spodoptera exigua): 90%

SMILES: [O-][S+](c1c(C(F)(F)F)nn2c1NC(C(F)(F)F)c1cc(C(F)(F)F)cc(Cl)c1-2)C(F)(F)F (stereo not drawn) [d-107]
- Plutella xylostella Mortality (%) (Plutella xylostella): 100%
- Solenopsis invicta Mortality (%) 24 h (Solenopsis invicta; 24 h): 24%
- Solenopsis invicta Mortality (%) 72 h (Solenopsis invicta; 72 h): 100%
- Aphis craccivora Mortality (%) (Aphis craccivora): 100%
- Spodoptera exigua Mortality (%) (Spodoptera exigua): 100%

SMILES: COC(=O)C1(CC(=O)OCC(F)(F)F)Nc2c([S+]([O-])C(F)(F)F)c(C#N)nn2-c2c(Cl)cc(C(F)(F)F)cc21 (stereo not drawn) [d-27]
- Plutella xylostella Mortality (%) (Plutella xylostella): 100%
- Solenopsis invicta Mortality (%) 24 h (Solenopsis invicta; 24 h): 14%
- Solenopsis invicta Mortality (%) 72 h (Solenopsis invicta; 72 h): 100%
- Aphis craccivora Mortality (%) (Aphis craccivora): 100%
- Spodoptera exigua Mortality (%) (Spodoptera exigua): 100%

SMILES: CNC(=O)C1(CC#N)Nc2c([S+]([O-])C(F)(F)F)c(C#N)nn2-c2c(Cl)cc(C(F)(F)F)cc21 (stereo not drawn) [Compound C33]
- mortality at 500 ppm (Plutella xylostella): 100%
- mortality at 100 ppm (Solenopsis invicta; [1]): 36%
- mortality at 100 ppm (Solenopsis invicta; [2]): 100%
- mortality at 500 ppm (Aphis craccivora): 100%
- mortality at 500 ppm (Spodoptera exigua): 100%

SMILES: N#Cc1nn2c(c1OC(F)(F)F)NC(C(=O)C(F)(F)F)c1cc(C(F)(F)F)cc(Cl)c1-2 (stereo not drawn) [d-127]
- Plutella xylostella Mortality (%) (Plutella xylostella): 96%
- Solenopsis invicta Mortality (%) 24 h (Solenopsis invicta; 24 h): 20%
- Solenopsis invicta Mortality (%) 72 h (Solenopsis invicta; 72 h): 97%
- Aphis craccivora Mortality (%) (Aphis craccivora): 100%
- Spodoptera exigua Mortality (%) (Spodoptera exigua): 100%

SMILES: CNC(=O)Nc1cc2n(n1)-c1cnccc1C(F)(CC(F)(F)F)N2 (stereo not drawn) [Compound A41]
- mortality at 500 ppm (Plutella xylostella): 100%
- mortality at 100 ppm (Solenopsis invicta; [1]): 24%
- mortality at 100 ppm (Solenopsis invicta; [2]): 100%
- mortality at 500 ppm (Aphis craccivora): 100%
- mortality at 500 ppm (Spodoptera exigua): 100%

SMILES: CCOC(=O)CC1(C(=O)OCC)Nc2c([S+]([O-])C(F)(F)F)c(C#N)nn2-c2ncc(C(F)(F)F)cc21 (stereo not drawn) [a-22]
- Plutella xylostella Mortality (%) 500 ppm (Plutella xylostella): 100%
- Solenopsis invicta Mortality (%) 100 ppm 24 h (Solenopsis invicta; 24 h): 30%
- Solenopsis invicta Mortality (%) 100 ppm 72 h (Solenopsis invicta; 72 h): 100%
- Aphis craccivora Mortality (%) 500 ppm (Aphis craccivora): 100%
- Spodoptera exigua Mortality (%) 500 ppm (Spodoptera exigua): 100%

SMILES: C=CCN(CC)c1cc2n(n1)-c1cnccc1C(F)(CC(F)(F)F)N2 (stereo not drawn) [Compound A38]
- mortality at 500 ppm (Plutella xylostella): 100%
- mortality at 100 ppm (Solenopsis invicta; [1]): 26%
- mortality at 100 ppm (Solenopsis invicta; [2]): 93%
- mortality at 500 ppm (Aphis craccivora): 100%
- mortality at 500 ppm (Spodoptera exigua): 90%

SMILES: CC1(C)Nc2c(Br)c(C#N)nn2-c2ccccc21 [Compound A2]
- mortality at 500 ppm (Plutella xylostella): 97%
- mortality at 100 ppm (Solenopsis invicta; [1]): 19%
- mortality at 100 ppm (Solenopsis invicta; [2]): 93%
- mortality at 500 ppm (Aphis craccivora): 100%
- mortality at 500 ppm (Spodoptera exigua): 100%

SMILES: COC(=O)CC1(C(=O)OC)c2cc(C(F)(F)F)cc(Cl)c2-n2nc(C#N)c([S+]([O-])C(F)(F)F)c2N1C (stereo not drawn) [Compound C39]
- mortality at 500 ppm (Plutella xylostella): 90%
- mortality at 100 ppm (Solenopsis invicta; [1]): 24%
- mortality at 100 ppm (Solenopsis invicta; [2]): 87%
- mortality at 500 ppm (Aphis craccivora): 98%
- mortality at 500 ppm (Spodoptera exigua): 100%

SMILES: COC(=O)CC1(C(F)(F)F)Nc2c([S+]([O-])C(F)(F)F)c(C#N)nn2-c2ncc(C(F)(F)F)cc21 (stereo not drawn) [a-62]
- Plutella xylostella Mortality (%) 500 ppm (Plutella xylostella): 100%
- Solenopsis invicta Mortality (%) 100 ppm 24 h (Solenopsis invicta; 24 h): 21%
- Solenopsis invicta Mortality (%) 100 ppm 72 h (Solenopsis invicta; 72 h): 99%
- Aphis craccivora Mortality (%) 500 ppm (Aphis craccivora): 100%
- Spodoptera exigua Mortality (%) 500 ppm (Spodoptera exigua): 100%

SMILES: [O-][S+](c1c(C(F)(F)F)nn2c1NC(Br)c1cc(C(F)(F)F)cc(Cl)c1-2)C(F)(F)F (stereo not drawn) [d-114]
- Plutella xylostella Mortality (%) (Plutella xylostella): 100%
- Solenopsis invicta Mortality (%) 24 h (Solenopsis invicta; 24 h): 24%
- Solenopsis invicta Mortality (%) 72 h (Solenopsis invicta; 72 h): 90%
- Aphis craccivora Mortality (%) (Aphis craccivora): 100%
- Spodoptera exigua Mortality (%) (Spodoptera exigua): 87%

SMILES: CC(=O)c1nn2c(c1[S+](C)[O-])NC(CC(=O)O)(C(=O)O)c1cc(C(F)(F)F)cc(Cl)c1-2 (stereo not drawn) [Compound C47]
- mortality at 500 ppm (Plutella xylostella): 77%
- mortality at 100 ppm (Solenopsis invicta; [1]): 27%
- mortality at 100 ppm (Solenopsis invicta; [2]): 87%
- mortality at 500 ppm (Aphis craccivora): 80%
- mortality at 500 ppm (Spodoptera exigua): 86%

SMILES: N#CCC1(C(=O)C(F)(F)F)Nc2c([S+]([O-])C(F)(F)F)c(C#N)nn2-c2ncc(C(F)(F)F)cc21 (stereo not drawn) [a-30]
- Plutella xylostella Mortality (%) 500 ppm (Plutella xylostella): 96%
- Solenopsis invicta Mortality (%) 100 ppm 24 h (Solenopsis invicta; 24 h): 20%
- Solenopsis invicta Mortality (%) 100 ppm 72 h (Solenopsis invicta; 72 h): 97%
- Aphis craccivora Mortality (%) 500 ppm (Aphis craccivora): 100%
- Spodoptera exigua Mortality (%) 500 ppm (Spodoptera exigua): 90%

SMILES: CC(=O)C1(CC(=O)C(F)(F)F)Nc2c([S+]([O-])C(F)(F)F)c(C#N)nn2-c2c(Cl)cc(C(F)(F)F)cc21 (stereo not drawn) [d-49]
- Plutella xylostella Mortality (%) (Plutella xylostella): 100%
- Solenopsis invicta Mortality (%) 24 h (Solenopsis invicta; 24 h): 29%
- Solenopsis invicta Mortality (%) 72 h (Solenopsis invicta; 72 h): 100%
- Aphis craccivora Mortality (%) (Aphis craccivora): 100%
- Spodoptera exigua Mortality (%) (Spodoptera exigua): 100%
